Series [1] has as its target human adenosine A2A receptors (Homo sapiens, UniProt P29274). The series can be described thus: Binding affinities at hA2A receptors, displacement of [3H]-CGS 21680. Particulars: in vitro binding, radioligand [3H]-CGS 21680. From the text: The compounds were examined in an assay measuring in vitro binding to human adenosine A2A receptors by determining the displacement of the adenosine A2A receptor selective radioligand [^3H]-CGS 21680 using standard techniques.
(In a radioligand displacement assay an active substance lowers the binding of a labelled ligand.)

Series [2] relates to haloperidol-induced hypolocomotion. The series can be described thus: Haloperidol-induced hypolocomotion model. Format: in vivo. Particulars: mice, 10 mg/kg intraperitoneally, haloperidol 0.2 mg/kg. From the text: This approach is also considered a valid method for screening drugs with potential antiparkinsonian effects. Thus, the ability of novel adenosine antagonists to block haloperidol-induced deficits in locomotor activity in mice can be used to assess both in vivo and potential antiparkinsonian efficacy.
Female TO mice (25-30 g) obtained from TUCK, UK, are used for all experiments. Animals are housed in groups of 8 [cage size−40 (width)×40 (length)×20 (height)cm] under 12 hr light/dark cycle (lights on 08:00 hr), in a temperature (20±2° C.) and humidity (55±15%) controlled environment. Animals have free access to food and water, and are allowed at least 7 days to acclimatize after delivery before experimental use.
Liquid injectable haloperidol (1 ml Serenance ampoules from Baker Norton, Harlow, Essex, each containing haloperidol BP 5 mg, batch # P424) are diluted to a final concentration of 0.02 mg/ml using saline. Test compounds are typically prepared as aqueous suspensions in 8% Tween. All compounds are administered intraperitoneally in a volume of 10 ml/kg.
1.5 hours before testing, mice are administered 0.2 mg/kg haloperidol, a dose that reduces baseline locomotor activity by at least 50%. […] Horizontal locomotor activity is determined by placing the cages within a frame containing a 3×6 array of photocells linked to a computer, which tabulates beam breaks. […]

Another series relates to catalepsy. As to conditions: cited from earlier work.
For series [3] the following is noted: cited from earlier work.

Broadly, the Ki is the dissociation constant of the complex between target and ligand, obtained from inhibition or displacement. As usually defined, the melting point is the temperature, or range, at which the solid turns liquid.

Sequence of human adenosine A2A receptors (P29274 whole entry): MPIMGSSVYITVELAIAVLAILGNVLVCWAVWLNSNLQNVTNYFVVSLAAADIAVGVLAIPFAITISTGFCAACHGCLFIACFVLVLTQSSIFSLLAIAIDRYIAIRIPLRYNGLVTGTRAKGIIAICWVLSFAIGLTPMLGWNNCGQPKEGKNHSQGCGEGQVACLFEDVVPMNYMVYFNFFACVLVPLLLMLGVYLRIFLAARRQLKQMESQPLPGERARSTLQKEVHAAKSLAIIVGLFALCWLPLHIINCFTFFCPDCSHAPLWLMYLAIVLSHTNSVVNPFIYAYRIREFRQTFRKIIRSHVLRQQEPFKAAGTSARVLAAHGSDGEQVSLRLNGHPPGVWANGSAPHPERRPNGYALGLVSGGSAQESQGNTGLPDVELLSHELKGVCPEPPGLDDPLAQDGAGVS

In the case of `OC(c1ccccc1Br)c1cc(C(F)(F)F)nc2c(C(F)(F)F)cccc12` (stereo not drawn) [Example 21, 2,8-Bis(trifluoromethyl)-α-(2-bromophenyl)-4-quinolinemethanol], the melting point lay within 147 to 149 °C. The inhibition constant (Ki) in series [1] was 743 nM.

The compound `OC(c1ccccc1F)c1cc(C(F)(F)F)nc2c(C(F)(F)F)cccc12` (stereo not drawn) [Example 22, 2,8-Bis(trifluoromethyl)-α-(2-fluorophenyl)-4-quinolinemethanol] showed a melting point of 119.5 to 120.8 °C. This compound yielded an inhibitory constant (Ki) in series [1] of 1920 nM.

`COc1ccccc1C(O)c1cc(C(F)(F)F)nc2c(C(F)(F)F)cccc12` (centres unmarked) [Example 23] came in with a melting point of 132 to 134 °C. This compound displayed an inhibitory constant (Ki) in series [1] of 701 nM.

On to `Cc1cccc2c(C(O)c3ccsc3)cc(C(F)(F)F)nc12` (stereo not drawn) [Example 28, 8-Methyl-α-(3-thienyl)-2-trifluoromethyl-4-quinolinemethanol], for which the melting point lay within 113 to 114 °C. For the same compound, the inhibitory constant (Ki) in series [1] was determined as 574 nM.

`CCc1cccc2c(C(O)c3ccccc3)cc(C(F)(F)F)nc12` (stereo not drawn) [Example 31, 8-Ethyl-α-phenyl-2-trifluoromethy-4-quinolinemethanol] registered a melting point of 102 to 104 °C. The same compound registered a Ki in series [1] of 1770 nM.

`Oc1cc(C(O)C2CCCCC2)c2ccccc2n1` (stereo not drawn) [Example 86, α-Cyclohexyl-2-hydroxy-4-quinolinemethanol] had a melting point greater than 250 °C. In addition, in series [2], the “reversal of haloperidol-induced hypolocomotion” value is given as “significantly reversed”.

Take `CCCn1c(=O)c2c(nc(/C=C/c3ccc(OC)c(OC)c3)n2C)n(CCC)c1=O` [KF 17837, (E)-8-(3,4-dimethoxystyryl)-1,3-dipropyl-7-methylxanthine]: in the series on catalepsy (in vivo), the “anticataleptic effects of a subthreshold dose of L-DOPA plus benserazide” value was “potentiated”; the “catalepsy induced by haloperidol and reserpine” value was “reduced”. Moreover, in the series on catalepsy (oral administration), the “cataleptic responses induced by intracerebroventricular CGS 21680” value is reported as “significantly ameliorated”.

For `Cn1c(=O)c2[nH]cnc2n(C)c1=O` [theophylline, 1,3-dimethylxanthine], the “mean objective disability scores” value in series [3] (15 Parkinsonian patients, up to 12 weeks, 150 mg/day) is on record as “significant improvements”. In series [3] (slow release oral preparation 150 mg/day, after one week, Parkinsonian patients), the serum theophylline levels is reported as 4.44 mg/L.

Source of the values: US6583156B1 (Vernalis Research Limited, priority 1998, dated 2003).
